One compound from ChEMBL document CHEMBL3734667 (Bioorg Med Chem, 2015) can be followed below.

pEC50: −log10 of the molar value. A value given as a limit tells only on which side of the number the result lay.

One series deals with Human alphaherpesvirus 1. Put plainly: Antiviral activity against HSV1. The format is functional, organism-based.
A further series concerns Yellow fever virus. Kind of series: Antiviral activity against YFV infected in BHK-21 cells assessed as inhibition of virus-induced cytopathogenicity after 3 to 4 days by MTT assay. The format is functional, organism-based. A general note: Protection from cytopathic effect is a common read-out in antiviral testing.
Series [1] is described as follows: Cytotoxicity against MDBK cells assessed as cell viability after 48 to 96 hrs by MTT assay. The class given is cell-based, Bos taurus. Conditions: cattle.
For series [2], the system named is Human immunodeficiency virus 1. Put plainly: Antiviral activity against HIV-1 infected in MT4 cells assessed as inhibition of virus-induced cytopathogenicity after 4 days by MTT assay. The class given is functional, organism-based. To be noted: Human immunodeficiency virus 1, MT4, 96 h.
Series [3] has as its system Vesicular stomatitis virus. Put plainly: Antiviral activity against VSV. The format is functional, organism-based.
For a further series, the system named is Vaccinia virus. Kind of series: Antiviral activity against Vaccinia virus. To be noted: Orthopoxvirus vaccinia. The format is functional, organism-based.
Series [4] can be described thus: Cytotoxicity against BHK cells assessed as cell viability after 48 to 96 hrs by MTT assay. The format is cell-based, Mesocricetus auratus. To be noted: hamster. (Formazan colour is commonly taken as a measure of viable cells.)
Series [5] relates to Mammalian orthoreovirus 1. Kind of series: Antiviral activity against Reo-1 virus infected in BHK-21 cells assessed as inhibition of virus-induced cytopathogenicity after 3 to 4 days by MTT assay. The format is functional, cell-based. Conditions: Mammalian orthoreovirus 1, BHK-21.
Series [6] has as its system Coxsackievirus B5. Kind of series: Antiviral activity against human CVB5 infected in african green monkey Vero76 cells assessed as inhibition of virus-induced cytopathogenicity after 3 days by plaque reduction assay. The format is functional, organism-based. Conditions: Enterovirus B, Vero 76, 72 h.
Series [7] concerns Coxsackievirus B5. Put plainly: Ratio of NM176 EC50 to compound EC50 for human CVB5. The format is functional.
The test system of series [8] is Bovine viral diarrhea virus 1. Put plainly: Antiviral activity against BVDV infected in MDBK cells assessed as inhibition of virus-induced cytopathogenicity after 3 to 4 days by MTT assay. The class given is functional, organism-based. To be noted: Bovine viral diarrhea virus isolates and strains.
Series [9] is described as follows: Cytotoxicity against human MT4 cells assessed as cell viability after 96 hrs by MTT assay. The format is cell-based.
A further series concerns Human orthopneumovirus. Put plainly: Antiviral activity against human RSV infected in african green monkey Vero76 cells assessed as inhibition of virus-induced cytopathogenicity after 5 days by plaque reduction assay. Conditions: human respiratory syncytial virus, Vero 76, 120 h. The format is functional, organism-based.
Series [10] in a line: Cytotoxicity against african green monkey Vero 76 cells assessed as cell viability after 48 to 96 hrs by crystal violet staining method. The class given is cell-based. To be noted: chlorocebus sabaeus.
Another series has as its system Poliovirus 1. Put plainly: Antiviral activity against Human poliovirus 1 Sabin infected in african green monkey Vero76 cells assessed as inhibition of virus-induced cytopathogenicity by plaque reduction assay. The format is functional, organism-based. To be noted: Enterovirus C, Vero 76.
Series [11] relates to Coxsackievirus B5. Kind of series: Ratio of NM108 EC50 to compound EC50 for human CVB5. The class given is functional.
A short description of series [12]: Selectivity index, ratio of CC50 for african green monkey Vero76 cells to EC50 for human CVB5. Details: species or system Coxsackievirus B5, Vero 76.

Take `Cc1ccc2nn(-c3ccc(OCCCC(C)(C)C(=O)O)cc3)nc2c1`: the pEC50 (in the series on Human alphaherpesvirus 1; in the series on Yellow fever virus; in series [2]; in [3]; in the series with Vaccinia virus; in [5]) was under 4.00 in each case. Also, the pEC50 is 6.82 with Coxsackievirus B5 [6], under 4.00 in [8], under 4.00 in the series on Human orthopneumovirus and under 4.00 in the series with Poliovirus 1. The CC50 stood at 24 µM in [1], 17 µM in [4] and 15 µM in series [10]. For the same compound, the figures for the “Ratio EC50” value with Coxsackievirus B5 [7] and in the series on Coxsackievirus B5 [11] were 200 and 133, respectively. Moreover, the half-maximal cytotoxic concentration (CC50) at 96 h in series [9] was found to be 53 µM. Besides, in [12], the “Ratio CC50/EC50” value came out at 100.

For orientation: pEC50 means −log10 of the EC50, conventionally taken in molar units. As usually defined, the CC50 is the concentration giving 50% cytotoxicity.
